Source: US20070027118A1 (priority 2005, published 2007)
Read-outs that look alike come from different tables or passages of the source.

Key:
11β-hsd-1 enzyme [1] = biological target: T1, 11β-hsd-1 enzyme (Homo sapiens, UniProt P28845); assay: biochemical; settings: for inhibition: read-out: % Inh @ 0.1 mM; for inhibition at 0.1 µM: read-out: % Inh @ 0.1 μM
Method: Percentage of inhibition was determined in a 100 mM Triethanolamine buffer, pH 8.0, 200 mM NaCl, 0.02% n-dodecyl β-D-maltoside and 5 mM β-ME. A typical reaction was carried on a Corning® u-bottom 96-well plate and is described as follows: 11β-hsd-1 enzyme (5 nM, final concentration) was pre-incubated in the presence of the inhibitor and NADPH (500 μM, final concentration) for at least 30 minutes
in the assay buffer. When pre-incubation was completed, the reaction was initiated by adding the regenerating system (2 mM Glucose-6-Phosphate, 1U/mL Glucose-6-Phosphate dehydrogenase, and 6 mM MgCl2, all the concentration reported are final in the assay buffer), and 3H-cortisone (200 nM, final concentration). After 60 minutes, 60 μL of the assay mixture was transferred to a second 96-well plate and mixed with an equal volume of dimethylsulfoxide to stop the reaction. A 15 μL aliquot from the reaction mixture was loaded into a C-18 column (Polaris C18-A, 50×4.6 mm, 5 μ, 180 Angstrom from Varian) connected to an automated High-throughput Liquid Chromatography instrument developed by Cohesive Technologies Inc of Franklin, Mass., with a […] model 3 Radio-HPLC detector from IN/US of Tampa, Fla. The substrate and product peaks were separated by using an isocratic mixture of 43:57 methanol to water (v/v) at a flow rate of 1.0 mL/min.
Percent Inhibition was calculated based on the following equation: (1-(3H-Cortisol peak area in the […] of inhibitor)×100).

11β-hsd-1 enzyme [2] = biological target: T1, 11β-hsd-1 enzyme; assay: biochemical
Method: The 11β-hsd-1 assay was performed in a 100 mM Triethanolamine buffer pH 8.0, containing 200 mM NaCl, 0.02% n-dodecyl β-D-maltoside, 5% glycerol, 5 mM β-mercaptoethanol. A typical reaction for the determination of Kiapp values was carried at R.T. in a Corning® u-bottom 96-well plate and is described as follows: 11β-hsd-1 enzyme (5 nM, final concentration) was pre-incubated in the presence of the inhibitor and NADPH (500 μM, final concentration) for at least 30 minutes in the assay buffer. When pre-incubation was completed, the reaction was initiated by adding the regenerating system (2 mM Glucose-6-Phosphate, 1U/mL Glucose-6-Phosphate dehydrogenase, and 6 mM MgCl2, all the concentration reported are final in the assay buffer), and 3H-cortisone (200 nM, final concentration). After 60 minutes, 60 μL of the assay mixture was transferred to a second 96-well plate and mixed with an equal volume of dimethylsulfoxide to stop the reaction. A 15 μL aliquot from the reaction mixture was loaded into a C-18 column (Polaris C18-A, 50×4.6 mm, 5 μ, 180 Angstrom from Varian) connected to an automated High-throughput Liquid Chromatography instrument developed by Cohesive Technologies Inc, of Franklin, Mass. USA, with a β-RAM model 3 Radio-HPLC detector from IN/US, of Tampa, Fla. USA. The substrate and product peaks were separated by using an isocratic mixture of 43:57 methanol to water (v/v) at a flow rate of 1.0 mL/min.
The initial reaction velocities were measured by stopping the reaction at 60 min and by measuring the area of product formation in the absence and the presence of various concentrations of inhibitors. The Kiapp values were determined using the equation for tight-binding inhibitor developed by Morrison, J. F. (Morrison J. F. Biochim BiophysActa. 1969; 185: 269-86).
The radiolabeled [1,2-3H]-cortisone is commercially available from American Radiolabeled Chemicals Inc of St. Louis, Mo. USA. NADPH, Glucose-6-Phosphate, and Glucose-6-Phosphate dehydrogenase were purchased from Sigma®.
(Morrison J. F. Biochim Biophys Acta. 1969; 185: 269-86).

T1 sequence (P28845 whole entry, species assumed): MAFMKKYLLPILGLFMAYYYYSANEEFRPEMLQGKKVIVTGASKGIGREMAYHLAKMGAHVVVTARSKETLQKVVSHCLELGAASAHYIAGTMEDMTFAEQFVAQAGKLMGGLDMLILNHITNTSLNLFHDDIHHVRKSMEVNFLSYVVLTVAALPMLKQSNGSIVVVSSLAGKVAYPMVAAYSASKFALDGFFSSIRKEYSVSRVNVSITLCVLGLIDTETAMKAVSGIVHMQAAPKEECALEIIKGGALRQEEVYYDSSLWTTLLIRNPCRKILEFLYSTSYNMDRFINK

Row | Ki (11β-hsd-1 enzyme [2]) | Compound | inhibition (11β-hsd-1 enzyme [1]) | further results
1 | – | 4-(6-chloro-13-benzoxazol-2- yl)-N-quinolin-2-ylpiperazine- 1-sulfonamide [Example 167] | – | % Inh @ 0.1 mM (11β-hsd-1 enzyme [1]; Table 2, inhibitor 0.1 mM as printed): 100%; Ki (11β-hsd-1 enzyme [2]; read-out: Klapp, Table 2, 5 nM enzyme, 200 nM 3H-cortisone, 500 μM NADPH): 3.4 nM
2 | 13 nM | CCc1cccc(NS(=O)(=O)N2CC[C@@H]3CCCC[C@@H]3C2)n1 (racemic) [Example 120, (4aS*8aS*)-N-(6-ethylpyridin-2-yl)octahydro-isoquinoline-2(1H)-sulfonamide] | 100% | –
3 | 4.1 nM | Cc1cc(C)nc(NS(=O)(=O)N2CCN(c3ccc(C(F)(F)F)cn3)CC2)c1 [Example 1, N-(4,6-dimethylpyridin-2-yl)-4-[5-(trifluoromethyl)pyridin-2-yl]piperazine-1-sufonamide] | – | inhibition at 0.1 µM (11β-hsd-1 enzyme [1]): 95.9%
4 | 9 nM | CCc1cccc(NS(=O)(=O)N2CCN(c3ccc(C#N)cn3)CC2)n1 [Example 3, 4-(5-cyanopyridin-2-yl)-N-(6-ethylpyridin-2-yl)piperazine-1-sulfonamide] | – | inhibition at 0.1 µM (11β-hsd-1 enzyme [1]): 88.5%
5 | 2.1 nM | Cc1cccc(NS(=O)(=O)N2CCN(c3ccc(C(F)(F)F)cn3)CC2)n1 [Example 8] | – | inhibition at 0.1 µM (11β-hsd-1 enzyme [1]): 96.4%
6 | 14 nM | Cc1cc(C)nc(NS(=O)(=O)N2CCN(c3ccc(C#N)cn3)CC2)c1 [Example 9] | – | inhibition at 0.1 µM (11β-hsd-1 enzyme [1]): 86.5%
7 | 25.5 nM | Cc1cccc(NS(=O)(=O)N2CCc3ccc(S(C)(=O)=O)cc3CC2)n1 [Example 10] | – | inhibition at 0.1 µM (11β-hsd-1 enzyme [1]): 79.9%
8 | 2.8 nM | Cc1cccc(NS(=O)(=O)N2CCc3ccccc3CC2)n1 [Example 11] | – | inhibition at 0.1 µM (11β-hsd-1 enzyme [1]): 95.5%
9 | 8.6 nM | CS(=O)(=O)c1ccc2c(c1)CCN(S(=O)(=O)Nc1ccc3ccccc3n1)CC2 [Example 12, 7-(Methylsulfonyl)-N-quinolin-2-yl-1,2,4,5-tetrahydro-3H-3-benzazepine-3-sulfonamide] | – | inhibition at 0.1 µM (11β-hsd-1 enzyme [1]; Table 1, inhibitor 0.1 μM): 100%
10 | 7.3 nM | N#Cc1ccc(N2CCN(S(=O)(=O)Nc3ccc4ccccc4n3)CC2)nc1 [Example 13] | – | inhibition at 0.1 µM (11β-hsd-1 enzyme [1]): 94.9%
11 | 4.8 nM | O=S(=O)(Nc1ccc2ccccc2n1)N1CCN(c2ccc(C(F)(F)F)cn2)CC1 [Example 14] | – | inhibition at 0.1 µM (11β-hsd-1 enzyme [1]): 100%
12 | 2 nM | CCOC(=O)Cc1cccc(NS(=O)(=O)N2CCc3ccccc3CC2)n1 [Example 15, Ethyl {6-[(1,2,4,5-tetrahydro-3H-3-benzazepin-3-ylsulfonyl)amino]pyridin-2-yl}acetate] | – | inhibition at 0.1 µM (11β-hsd-1 enzyme [1]): 100%
13 | – | CCc1cccc(NS(=O)(=O)N2CCN(c3nc(C)cc(CC(C)C)n3)CC2)n1 [Example 143, N-(6-ethylpyridin-2-yl)-4-(4-isobutyl-6-methylpyrimidin-2-yl)piperazine-1-sulfonamide] | 36.7% | –
14 | – | CCc1cccc(NS(=O)(=O)N2CCN(c3ccc(C(=O)NC(C)C)cn3)CC2)n1 [Example 146, 6-(4-{[(6-ethylpyridin-2-yl)amino]sulfonyl)piperazin-1-yl)-N-isopropylnicotinamide] | 30.4% | –
15 | – | CCc1cccc(NS(=O)(=O)N2CCN(c3ccc(C(=O)N4CCOCC4)cn3)CC2)n1 [Example 147, N-(6-ethylpyridin-2-yl)-4-[5-(morpholin-4-ylcarbonyl)pyridin-2-yl]piperazine-1-sulfonamide] | 27.2% | –
16 | – | Cc1cccc(NS(=O)(=O)N2CCN(c3nc4ncccc4o3)CC2)n1 [Example 152, N-(6-methylpyridin-2-yl)-4-[13]oxazolo[45-b]pyridin-2-ylpiperazine-1-sulfonamide] | 47.6% | –
17 | – | O=S(=O)(Nc1ccc2ccccc2n1)N1CCN(c2cnccn2)CC1 [Example 158, 4-pyrazin-2-yl-N-quinolin-2-ylpiperazine-1-sulfonamide] | 44.8% | –

Row | Ki (11β-hsd-1 enzyme [2]) | Compound | inhibition (11β-hsd-1 enzyme [1]) | further results
18 | – | O=S(=O)(Nc1ccc2ccccc2n1)N1CCN(c2ncccc2C(F)(F)F)CC1 [Example 159, N-quinolin-2-yl-4-[3-(trifluoromethyl)pyridin-2-yl]piperazine-1-sulfonamide] | 53.4% | –
19 | – | O=S(=O)(Nc1ccc2ccccc2n1)N1CCCN(c2ncccn2)CC1 [Example 163, 4-pyrimidin-2-yl-N-quinolin-2-yl-14-diazepane-1-sulfonamide] | 10.5% | –
20 | – | N#Cc1cccnc1N1CCCN(S(=O)(=O)Nc2ccc3ccccc3n2)CC1 [Example 168, 4-(3-cyanopyridin-2-yl)-N-quinolin-2-yl-14-diazepane-1-sulfonamide] | 56.7% | –
21 | – | COc1cc2c(nn1)CCN(S(=O)(=O)Nc1ccc3ccccc3n1)CC2 [Example 170, 3-methoxy-N-quinolin-2-yl-5689-tetrahydro-7H-pyridazino[34-d]azepine-7-sulfonamide] | 21.2% | –
22 | – | CCc1cccc(NS(=O)(=O)N2CCCN(c3ncccn3)CC2)n1 [Example 172, N-(6-ethylpyridin-2-yl)-4-pyrimidin-2-yl-14-diazepane-1-sulfonamide] | 60.2% | –
23 | – | O=S(=O)(Nc1ccc2ccccc2n1)N1CCOc2ccccc2C1 [Example 174, N-quinolin-2-yl-23-dihydro-14-benzoxazepine-4(5H)-sulfonamide] | 57.9% | –
24 | – | Cc1cc(CC(C)C)nc(N2CCN(S(=O)(=O)Nc3ccc4ccccc4n3)CC2)n1 [Example 175, 4-(4-isobutyl-6-methyl-pyrimidin-2-yl)-N-quinolin-2-ylpiperazine-1-sulfonamide] | 50% | –
25 | – | CC(C)NC(=O)c1ccc(N2CCN(S(=O)(=O)Nc3ccc4ccccc4n3)CC2)nc1 [Example 177, N-isopropyl-6-{4-[(quinolin-2-ylamino)sulfonyl]piperazin-1-yl}nicotinamide] | 59.4% | –
26 | – | Cc1ccc2oc(N3CCN(S(=O)(=O)Nc4ccc5ccccc5n4)CC3)nc2n1 [Example 179, 4-(5-methyl[13]oxazolo[45-b]pyridin-2-yl)-N-quinolin-2-ylpiperazine-1-sulfonamide] | 0% | –
27 | – | CCc1cccc(NS(=O)(=O)N2CCCN(C(=O)OCc3ccccc3)CC2)n1 [Example 182, benzyl 4-{[(6-ethylpyridin-2-yl)amino]sulfonyl}-14-diazepane-1-carboxylate] | 61% | –
28 | – | CCc1cccc(NS(=O)(=O)N2CCN(c3cc(C#N)ccn3)CC2)n1 [Example 184, 4-(4-cyanopyridin-2-yl)-N-(6-ethylpyridin-2-yl)piperazine-1-sulfonamide] | 16.8% | –
29 | – | CCc1cccc(NS(=O)(=O)N2CCN(c3nc4cc(OC)ccc4o3)CC2)n1 [Example 185, N-(6-ethylpyridin-2-yl)-4-(5-methoxy-13-benzoxazol-2-yl)piperazine-1-sulfonamide] | 48.9% | –
30 | – | CCc1cccc(NS(=O)(=O)N2CCN(c3cc(C)nc(C)c3)CC2)n1 [Example 188, 4-(26-dimethylpyridin-4-yl)-N-(6-ethylpyridin-2-yl)piperazine-1-sulfonamide] | 5.5% | –
31 | – | CCc1cccc(NS(=O)(=O)N2CCN(c3ccc(C)cc3)C(=O)C2)n1 [Example 189, N-(6-ethylpyridin-2-yl)-4-(4-methylphenyl)-3-oxopiperazine-1-sulfonamide] | 24.9% | –
32 | – | CCc1cccc(NS(=O)(=O)N2CCc3cc(OC)c(OC)cc3C2)n1 [Example 192, N-(6-ethylpyridin-2-yl)-67-dimethoxy-34-dihydroisoquinoline-2(1H)-sulfonamide] | 29.4% | –
33 | – | CCc1cccc(NS(=O)(=O)N2CCN(c3cnccn3)CC2)n1 [Example 199, N-(6-ethylpyridin-2-yl)-4-pyrazin-2-ylpiperazine-1-sulfonamide] | 31.3% | –
34 | – | CCc1cccc(NS(=O)(=O)N2Cc3ccccc3C2)n1 [Example 202, N-(6-ethylpyridin-2-yl)-13-dihydro-2H-isoindole-2-sulfonamide] | 2.4% | –
